From EP0329905A1, “Use of quinolizine and quinolizinone derivatives in the manufacture of medicaments for increasing gastric motility” (MERRELL DOW PHARMACEUTICALS INC., priority 1988, dated 1989)
Where a name gives a salt, the structure may show the parent alone.

Tested on: Von Bezold-Jarisch Reflex induced by 5-HT
Test: Von Bezold-Jarisch Reflex induced by 5-HT injected intravenously into the rat
Format: in vivo
From the text: The activity of these compounds against 5-HT can be assessed in vivo by measurement of the effect of the compound on the Von Bezold-Jarisch Reflex induced by 5-HT injected intravenously into the rat (see Paintal A.S., Physiol. Rev. 53, 159-227, 1973; J.R. Fozard, Naunyn-Schmiedeberg's Arch. Pharmacol., 326, 1984, 36-44). The transient cardiac slowing arises from an increased afferent vagus activity arising from stimulation by 5-HT of sensory afferent fibers in and around the heart.

[1] = doses of 0.01-0.1 mg/kg given intravenously
[2] = doses of 0.25-1 mg/kg given orally

| SMILES | suppression of the Von Bezold-Jarisch Reflex induced by 5-HT [1] | suppression of the Von Bezold-Jarisch Reflex induced by 5-HT [2] |
| --- | --- | --- |
| Cc1cc(C)cc(C(=O)OC2CC3CC4CC(C2)N3CC4=O)c1 (stereo not drawn) [endo-8-(3,5-dimethylbenzoyloxy)hexahydro-2,6-methano-2H-quinolizin-3(4H)-one hydrochloride] | suppressed the response dose-dependently | suppressed the response dose-dependently |
| O=C(OC1CC2CC3CC(C1)N2CC3=O)c1c[nH]c2ccccc12 (stereo not drawn) [endo-hexahydro-8-(3-indolylcarbonyloxy)-2,6-methano-2H-quinolizin-3(4H)one hydrochloride] | suppressed the response dose-dependently | suppressed the response dose-dependently |
